This is an account of results in patent US12539292B2, “BRM targeting compounds and associated methods of use” (Arvinas Operations, Inc., priority 2018, dated 2026).

The target of the test is T1, BRM (Homo sapiens, UniProt P51531).
T1 construct: In-Cell Western Screen of BRM Degradation in SW1573 Cells; endogenous in cells; host or cells: SW1573
As to the kind of experiment: In-cell Western screen of BRM degradation in SW1573 cells (Dmax and DC50). Format: cell-based. The method in brief: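 Adherent SW1573 cultures exposed to test compounds for 18-20 h were processed for in-cell Western after PFA fixation and detergent permeabilization. BRM degradation was reported as Dmax and DC50.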

Setting [1] is: BRM degradation, SW1573 cells, read-out: DC50.
The mark [2] stands for this setting: BRM degradation, SW1573 cells, read-out: Dmax (% degraded).
The mark [3] stands for this setting: BRM degradation, SW1573 cells, tested at the top concentration of between 0.3 and 10 μM, read-out: Dmax (%) (% degraded).
The mark [4] stands for this setting: SW1573, % degraded, when tested at the top concentration of between 0.3 and 10 μM, read-out: BRM Dmax (%).
The mark [5] stands for this setting: degradation of BRM, read-out: BRM DC50.
The mark [6] stands for this setting: BRM degradation, read-out: BRM DC50.
[7] abbreviates: BRM degradation, SW1573 cells, Table 2D, read-out: *DC50.

Where two headings read alike, the source gives them in different places. A value given as a limit tells only on which side of the number the result lay.

T1 sequence (P51531 whole entry): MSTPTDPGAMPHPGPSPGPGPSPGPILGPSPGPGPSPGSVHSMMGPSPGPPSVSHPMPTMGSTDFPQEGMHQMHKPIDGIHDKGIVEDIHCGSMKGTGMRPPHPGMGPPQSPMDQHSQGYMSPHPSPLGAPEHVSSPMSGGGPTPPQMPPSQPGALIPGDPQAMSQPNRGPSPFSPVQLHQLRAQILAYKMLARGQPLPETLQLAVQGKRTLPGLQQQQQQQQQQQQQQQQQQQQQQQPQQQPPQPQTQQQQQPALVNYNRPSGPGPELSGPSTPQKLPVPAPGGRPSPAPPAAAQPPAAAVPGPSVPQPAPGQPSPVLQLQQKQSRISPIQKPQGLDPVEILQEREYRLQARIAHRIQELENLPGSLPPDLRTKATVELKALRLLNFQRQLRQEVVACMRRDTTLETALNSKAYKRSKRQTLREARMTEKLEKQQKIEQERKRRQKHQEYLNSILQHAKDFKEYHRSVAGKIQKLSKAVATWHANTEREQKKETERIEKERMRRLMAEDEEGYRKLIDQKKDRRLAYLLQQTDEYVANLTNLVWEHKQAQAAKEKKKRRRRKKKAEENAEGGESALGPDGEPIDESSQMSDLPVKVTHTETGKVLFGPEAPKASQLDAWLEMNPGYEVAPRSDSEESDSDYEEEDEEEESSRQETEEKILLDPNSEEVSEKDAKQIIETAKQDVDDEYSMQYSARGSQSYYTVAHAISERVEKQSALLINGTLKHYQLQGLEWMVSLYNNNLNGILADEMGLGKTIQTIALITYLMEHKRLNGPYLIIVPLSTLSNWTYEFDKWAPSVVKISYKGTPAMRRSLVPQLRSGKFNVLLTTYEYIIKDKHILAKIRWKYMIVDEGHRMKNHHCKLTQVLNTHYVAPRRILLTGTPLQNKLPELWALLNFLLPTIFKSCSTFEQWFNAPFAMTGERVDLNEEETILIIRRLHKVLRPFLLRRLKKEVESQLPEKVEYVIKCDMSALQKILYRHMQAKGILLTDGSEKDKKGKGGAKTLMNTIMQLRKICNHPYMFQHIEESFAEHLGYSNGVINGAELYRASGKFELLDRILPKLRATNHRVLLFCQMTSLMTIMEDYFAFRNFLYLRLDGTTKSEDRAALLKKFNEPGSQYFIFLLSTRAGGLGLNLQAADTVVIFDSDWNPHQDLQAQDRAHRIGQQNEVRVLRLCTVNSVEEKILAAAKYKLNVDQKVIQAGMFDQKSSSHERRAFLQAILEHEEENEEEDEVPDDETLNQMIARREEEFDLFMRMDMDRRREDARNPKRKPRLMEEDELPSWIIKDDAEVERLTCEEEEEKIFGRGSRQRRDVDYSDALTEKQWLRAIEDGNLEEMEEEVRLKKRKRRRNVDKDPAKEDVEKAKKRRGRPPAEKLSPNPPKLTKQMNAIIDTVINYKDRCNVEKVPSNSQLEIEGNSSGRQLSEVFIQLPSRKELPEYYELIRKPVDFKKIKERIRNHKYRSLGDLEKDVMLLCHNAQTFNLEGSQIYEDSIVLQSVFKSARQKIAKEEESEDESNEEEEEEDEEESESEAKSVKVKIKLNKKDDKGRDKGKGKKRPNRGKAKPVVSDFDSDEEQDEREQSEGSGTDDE

As a reminder, the DC50 is the midpoint of the concentration-degradation curve. For orientation: Dmax means the largest share of the target that was removed. Take `Cc1ncsc1-c1ccc([C@H](C)NC(=O)[C@@H]2C[C@@H](O)CN2C(=O)[C@@H](c2cc(N3CCC(O)(CN4CCC(O[C@H]5C[C@H](Oc6cc(N7C8CCC7CN(c7cc(-c9ccccc9O)nnc7N)C8)ccn6)C5)CC4)CC3)no2)C(C)C)cc1` [compound 645, (2S,4R)-1-((2R)-2-(3-(4-((4-((1r,3r)-3-((4-(3-(3-amino-6-(2-hydroxyphenyl)pyridazin-4-yl)-3,8-diazabicyclo[3.2.1]octan-8-yl)pyridin-2-yl)oxy)cyclobutoxy)piperidin-1-yl)methyl)-4-hydroxypiperidin-1-yl)isoxazol-5-yl)-3-methylbutanoyl)-4-hydroxy-N-((S)-1-(4-(4-methylthiazol-5-yl)phenyl)ethyl)pyrrolidine-2-carboxamide]: under setting [1], the 50% degradation concentration (DC50) was less than 2.5 nM. Also, the greatest degradation seen (Dmax) under setting [2] is more than 75%.
`Cc1ncsc1-c1ccc(CNC(=O)[C@@H]2C[C@@H](O)CN2C(=O)[C@H](c2cc(OCC#Cc3ccc(O[C@H]4C[C@H](Oc5cc(N6C7CCC6CN(c6cc(-c8ccccc8O)nnc6N)C7)ccn5)C4)cn3)no2)C(C)C)cc1` [compound 220, (2S,4R)-1-((2S)-2-(3-((3-(5-((1r,3S)-3-((4-(3-(3-amino-6-(2-hydroxyphenyl)pyridazin-4-yl)-3,8-diazabicyclo[3.2.1]octan-8-yl)pyridin-2-yl)oxy)cyclobutoxy)pyridin-2-yl)prop-2-yn-1-yl)oxy)isoxazol-5-yl)-3-methylbutanoyl)-4-hydroxy-N-(4-(4-methylthiazol-5-yl)benzyl)pyrrolidine-2-carboxamide]: under setting [1], the 50% degradation concentration (DC50) was 10 to 30 nM. The Dmax under setting [3] is more than 75%.
`Cc1ncsc1-c1ccc([C@H](C)NC(=O)[C@@H]2C[C@@H](O)CN2C(=O)[C@@H](c2cc(OCCN3CCN(CCO[C@H]4C[C@H](Oc5cc(N6C7CCC6CN(c6cc(-c8ccccc8O)nnc6N)C7)ccn5)C4)CC3)no2)C(C)C)cc1` [compound 408, (2S,4R)-1-((2R)-2-(3-(2-(4-(2-((1r,3r)-3-((4-(3-(3-amino-6-(2-hydroxyphenyl)pyridazin-4-yl)-3,8-diazabicyclo[3.2.1]octan-8-yl)pyridin-2-yl)oxy)cyclobutoxy)ethyl)piperazin-1-yl)ethoxy)isoxazol-5-yl)-3-methylbutanoyl)-4-hydroxy-N-((S)-1-(4-(4-methylthiazol-5-yl)phenyl)ethyl)pyrrolidine-2-carboxamide]: under setting [4], the Dmax is more than 75%. Also, under setting [5], the half-maximal degradation concentration (DC50) is less than 2.5 nM.
`Cc1cc([C@@H](C(=O)N2C[C@H](O)C[C@H]2C(=O)N[C@@H](C)c2ccc(-c3scnc3C)cc2)[C@@H](C)COCCCCOc2cc(N3C4CCC3CN(c3cc(-c5ccccc5O)nnc3N)C4)ccn2)on1` [compound 431, (2S,4R)-1-((2S,3R)-4-(4-((4-(3-(3-amino-6-(2-hydroxyphenyl)pyridazin-4-yl)-3,8-diazabicyclo[3.2.1]octan-8-yl)pyridin-2-yl)oxy)butoxy)-3-methyl-2-(3-methylisoxazol-5-yl)butanoyl)-4-hydroxy-N-((S)-1-(4-(4-methylthiazol-5-yl)phenyl)ethyl)pyrrolidine-2-carboxamide]: under setting [4], the Dmax was more than 75%. Moreover, the half-maximal degradation concentration (DC50) under setting [5] is less than 2.5 nM.
In the case of `Cc1ncsc1-c1ccc([C@H](C)NC(=O)[C@@H]2C[C@@H](O)CN2C(=O)[C@H](c2cc(N3CCN(C[C@H]4C[C@H](Oc5cc(N6C7CCC6CN(c6cc(-c8ccccc8O)nnc6N)C7)ccn5)C4)CC3)no2)C(C)C)cc1` [compound 498, (2S,4R)-1-((2S)-2-(3-(4-(((1r,3S)-3-((4-(3-(3-amino-6-(2-hydroxyphenyl)pyridazin-4-yl)-3,8-diazabicyclo[3.2.1]octan-8-yl)pyridin-2-yl)oxy)cyclobutyl)methyl)piperazin-1-yl)isoxazol-5-yl)-3-methylbutanoyl)-4-hydroxy-N-((S)-1-(4-(4-methylthiazol-5-yl)phenyl)ethyl)pyrrolidine-2-carboxamide], the DC50 under setting [6] is more than 30 nM.
`Cc1ncsc1-c1ccc([C@H](C)NC(=O)[C@@H]2C[C@@H](O)CN2C(=O)[C@H](c2onc(OCCN3CCC(O[C@H]4C[C@H](Oc5cc(N6C7CCC6CN(c6cc(-c8ccccc8O)nnc6N)C7)ccn5)C4)CC3)c2F)C(C)C)cn1` [compound 269, (2S,4R)-1-((2S)-2-(3-(2-(4-((1r,3S)-3-((4-(3-(3-amino-6-(2-hydroxyphenyl)pyridazin-4-yl)-3,8-diazabicyclo[3.2.1]octan-8-yl)pyridin-2-yl)oxy)cyclobutoxy)piperidin-1-yl)ethoxy)-4-fluoroisoxazol-5-yl)-3-methylbutanoyl)-4-hydroxy-N-((S)-1-(6-(4-methylthiazol-5-yl)pyridin-3-yl)ethyl)pyrrolidine-2-carboxamide]: under setting [1], the DC50 is more than 30 nM.
Consider `Cc1nccn1-c1ccc([C@H](C)NC(=O)[C@@H]2C[C@@H](O)CN2C(=O)[C@@H](c2cc(OCCN3CCN(CCOc4cc(N5C6CCC5CN(c5cc(-c7ccccc7O)nnc5N)C6)ccn4)C[C@@H]3C)no2)C(C)C)cc1` [compound 553, (2S,4R)-1-((2R)-2-(3-(2-((2S)-4-(2-((4-(3-(3-amino-6-(2-hydroxyphenyl)pyridazin-4-yl)-3,8-diazabicyclo[3.2.1]octan-8-yl)pyridin-2-yl)oxy)ethyl)-2-methylpiperazin-1-yl)ethoxy)isoxazol-5-yl)-3-methylbutanoyl)-4-hydroxy-N-((S)-1-(4-(2-methyl-1H-imidazol-1-yl)phenyl)ethyl) pyrrolidine-2-carboxamide], for which the maximal degradation (Dmax) (BRM degradation, SW1573 cells, Table 2D, read-out: **Dmax (%) (% degraded)) is more than 75%. Besides, the 50% degradation concentration (DC50) under setting [7] is less than 2.5 nM.
As for `Cc1ncsc1-c1ccc([C@H](C)NC(=O)[C@@H]2C[C@@H](O)CN2C(=O)[C@H](c2cc(OCC[C@H]3CCN(C[C@H]4C[C@H](Oc5cc(N6C7CCC6CN(c6cc(-c8ccccc8O)nnc6N)C7)ccn5)C4)[C@@H](C)C3)no2)C(C)C)cc1` (racemic) [compound 547, (2S,4R)-1-((2S)-2-(3-(2-((2S,4S)-1-(((1r,3S)-3-((4-(3-(3-amino-6-(2-hydroxyphenyl)pyridazin-4-yl)-3,8-diazabicyclo[3.2.1]octan-8-yl)pyridin-2-yl)oxy)cyclobutyl)methyl)-2-methylpiperidin-4-yl)ethoxy)isoxazol-5-yl)-3-methylbutanoyl)-4-hydroxy-N-((S)-1-(4-(4-methylthiazol-5-yl)phenyl)ethyl)pyrrolidine-2-carboxamide], under setting [7], the DC50 is more than 30 nM.
Turning to `Cc1cc([C@H](C(=O)N2C[C@H](O)C[C@H]2C(=O)N[C@H](COCCCCCc2cc(-c3ccccc3O)nnc2N)c2ccc(-c3scnc3C)cc2)C(C)C)on1` [compound 528, (2S,4R)-N-((S)-2-((5-(3-amino-6-(2-hydroxyphenyl)pyridazin-4-yl)pentyl)oxy)-1-(4-(4-methylthiazol-5-yl)phenyl)ethyl)-4-hydroxy-1-((R)-3-methyl-2-(3-methylisoxazol-5-yl)butanoyl)pyrrolidine-2-carboxamide], under setting [6], the 50% degradation concentration (DC50) is more than 30 nM.
On to `Cc1ncsc1-c1ccc([C@@H](NC(=O)[C@@H]2C[C@@H](O)CN2C(=O)[C@H](c2cc(OCCN3CCC(O[C@H]4C[C@H](Oc5cc(N6C7CCC6CN(c6cc(-c8ccccc8O)nnc6N)C7)ccn5)C4)CC3)no2)C(C)C)C(F)F)cc1` [compound 267, (2S,4R)-1-((2S)-2-(3-(2-(4-((1r,3S)-3-((4-(3-(3-amino-6-(2-hydroxyphenyl)pyridazin-4-yl)-3,8-diazabicyclo[3.2.1]octan-8-yl)pyridin-2-yl)oxy)cyclobutoxy)piperidin-1-yl)ethoxy)isoxazol-5-yl)-3-methylbutanoyl)-N-((R)-2,2-difluoro-1-(4-(4-methylthiazol-5-yl)phenyl)ethyl)-4-hydroxypyrrolidine-2-carboxamide], for which, under setting [1], the half-maximal degradation concentration (DC50) was in the range of 2.5 to 10 nM. Besides, under setting [3], the Dmax was more than 75%.
`Cc1cc([C@H](C(=O)N2C[C@H](O)C[C@H]2C(=O)N[C@H](COCCOCCNc2ccc(-c3ccccc3O)nn2)c2ccc(-c3scnc3C)cc2)C(C)C)on1` [compound 524, (2S,4R)-4-hydroxy-N-((S)-2-(2-(2-((6-(2-hydroxyphenyl)pyridazin-3-yl)amino)ethoxy)ethoxy)-1-(4-(4-methylthiazol-5-yl)phenyl)ethyl)-1-((R)-3-methyl-2-(3-methylisoxazol-5-yl)butanoyl)pyrrolidine-2-carboxamide]: the 50% degradation concentration (DC50) under setting [6] was more than 30 nM.
As for `Cc1ncsc1-c1ccc([C@H](C)NC(=O)[C@@H]2C[C@@H](O)CN2C(=O)[C@H](c2cc(OCCN3CCC(O[C@H]4C[C@H](OCCN5CCOC6(CCN(c7cc(-c8ccccc8O)nnc7N)CC6)C5)C4)CC3)no2)C(C)C)cc1` [compound 358, (2S,4R)-1-((S)-2-(3-(2-(4-((1r,3S)-3-(2-(9-(3-amino-6-(2-hydroxyphenyl)pyridazin-4-yl)-1-oxa-4,9-diazaspiro[5.5]undecan-4-yl)ethoxy)cyclobutoxy)piperidin-1-yl)ethoxy)isoxazol-5-yl)-3-methylbutanoyl)-4-hydroxy-N-((S)-1-(4-(4-methylthiazol-5-yl)phenyl)ethyl)pyrrolidine-2-carboxamide], the DC50 (target protein degradation, read-out: BRM DC50) was more than 30 nM.
For the molecule `Cc1ncsc1-c1ccc([C@H](C)NC(=O)[C@@H]2C[C@@H](O)CN2C(=O)[C@@H](c2cc(N3CCC(CN4CCC(O[C@H]5C[C@H](Oc6cc(N7C8CCC7CN(c7cc(-c9ccccc9O)nnc7N)C8)ccn6)C5)CC4)CC3)no2)C(C)C)c(N)c1` [compound 708, (2S,4R)-N-((S)-1-(2-amino-4-(4-methylthiazol-5-yl)phenyl)ethyl)-1-((2R)-2-(3-(4-((4-((1r,3r)-3-((4-(3-(3-amino-6-(2-hydroxyphenyl)pyridazin-4-yl)-3,8-diazabicyclo[3.2.1]octan-8-yl)pyridin-2-yl)oxy)cyclobutoxy)piperidin-1-yl)methyl)piperidin-1-yl)isoxazol-5-yl)-3-methylbutanoyl)-4-hydroxypyrrolidine-2-carboxamide], the half-maximal degradation concentration (DC50) under setting [1] is less than 2.5 nM. The maximal degradation (Dmax) under setting [2] was more than 75%.
